Where “and” joins values, the source holds several entries; their conditions need not be identical. Equal values may be shown once. Read-outs that look alike come from different tables or passages of the source.
Columns and labels:
Assay type in all cases: in vivo, human
[1] = Everolimus blood pharmacokinetics (24-h profile day 15, trough levels) in Chinese patients with advanced solid tumors; conditions: for Tmax / Cmax / AUC: human, whole blood; for Tmax: po, read-out: Tmax, median (range); for Cmax / AUC: n = 12, day 15, blood; for Cmax / AUC / Cmin (pre-dose trough concentration): mean (% coefficient of variation); for AUC: read-out: AUC0-τ; for CL/F, mean (± standard deviation): after reaching steady state; for Cmin (pre-dose trough concentration): n = 12, blood; for Time to steady-state levels: continuous daily dosing
Method: Blood samples for everolimus 24-h PK profile were collected on day 15 pre-dose and at 1, 2, 4, 6, 8, and 24 h post-dose; blood samples for everolimus trough concentration were collected pre-dose on days 2, 8, 16, and 22. Everolimus concentration was determined after liquid extraction by a liquid chromatography-mass spectroscopy method with lower limits of quantification for everolimus of 0.3 ng/mL. PK parameters of everolimus determined for each cohort included the maximum blood concentration (Cmax), minimum blood concentration (Cmin), time to maximum concentration (Tmax), area under the dosing curve (AUC0-τ), and total body apparent clearance of drug from the blood (CL/F). PK analyses were performed on all patients in the safety population with a sufficient number of evaluable blood samples.

[2] = Safety and tolerability: adverse events graded by NCI CTCAE v3.0; conditions: for Deaths during the study: considered unrelated to everolimus
Description: Safety assessments included incidence, severity, and treatment relationship of adverse and serious adverse events and the regular monitoring of hematology, serum and urine chemistry, vital signs, and physical condition. Adverse events were graded according to the National Cancer Institute's Common Terminology Criteria for Adverse Events, version 3.0 [22]. The safety population consisted of all patients who received ≥1 dose of study drug and had ≥1 post-baseline safety assessment.

advanced solid tumors = experiment: Tumor response and progression by RECIST; conditions: for Best overall tumor response stable disease, patients: n = 12; for Patients with stable disease: both cohorts, 6 patients per tumor type
Method: Tumor response and progression was assessed locally for all randomized patients using RECIST criteria. A computed tomography scan or magnetic resonance image of the chest, abdomen, and pelvis was performed at screening and every 2 months (±7 days) thereafter. Confirmatory imaging results ≥4 weeks after an initial observation were required for a positive assessment of complete or partial response.

[3] = Patient disposition at final analysis; conditions: n = 12
Method: Patients continued treatment until tumor progression, unacceptable toxicity, death, or discontinued if the investigator or patient felt it was in the patient's best interest to discontinue participation. Dose modifications were allowed in the event of adverse events grade ≥2. Specific nomograms were followed to manage patients who developed known toxicities of everolimus, such as non-infectious pneumonitis.
This final analysis was performed after all patients had received 6 months of study drug or had discontinued from the study.

[4] = 5 mg/day, n = 12, suspected relationship to everolimus
[5] = 10 mg/day, n = 12, suspected relationship to everolimus

## CO[C@H]1C[C@@H]2CC[C@@H](C)[C@@](O)(O2)C(=O)C(=O)N2CCCC[C@H]2C(=O)O[C@H]([C@H](C)C[C@@H]2CC[C@@H](OCCO)[C@H](OC)C2)CC(=O)[C@H](C)/C=C(\C)[C@@H](O)[C@@H](OC)C(=O)[C@H](C)C[C@H](C)/C=C/C=C/C=C/1C [Everolimus, everolimus]
[1]; 10 mg/day versus 5 mg/day
  Cmin, Cmax and AUC0-τ with 10 mg/day relative to 5 mg/day: approximately 2 fold
[1]; 5 mg/day, oral 5 mg/day, n = 12
  Tmax: 3 h
[1]; 10 mg/day, oral 10 mg/day, n = 12
  Tmax: 2 h
[1]; oral 5 mg/day
  Cmax: 28.8 ng/mL
  AUC: 316 ng·h/mL
  CL/F, mean (± standard deviation): 16.7 (±5.6) L/h
  Cmin (pre-dose trough concentration): 8.3 (46.8) ng/mL
[1]; oral 10 mg/day
  Cmax: 53.8 ng/mL
  AUC: 589 ng·h/mL
  CL/F, mean (± standard deviation): 18.2 (±7.2) L/h
  Cmin (pre-dose trough concentration): 14.5 (47.9) ng/mL
[1]; oral 5 mg/day, n = 12
  Tmax, median (range): 2.96 (1.00-4.00) h
[1]; oral 5 and 10 mg/day
  Time at which maximum blood concentrations were generally reached: 2 to 4 h
  Time to steady-state levels: ≤ 8 days
[1]; oral 5 and 10 mg/day, listed as everolimus
  Time to steady-state levels: 8 days
[2]; 5 mg/day cohort
  Fatigue suspected to be related to everolimus, patients: 16.7%
  Hyperglycemia (increased blood glucose) suspected to be related to everolimus, patients: 16.7%
  Patients with grade 3 adverse events suspected to be related to everolimus: 25%
  Deaths during the study: 1
[2]; 5 mg/day, n = 12
  Adverse events with suspected relationship to everolimus: Total, All grades: 12 (100) n (%)
  Adverse events with suspected relationship to everolimus: Total, Grade 3: 3 (25.0) n (%)
  Adverse events with suspected relationship to everolimus: Total, Grade 4: 0 n (%)
[2]; [4]
  Anemia, All grades: 1 (8.3) n (%)
  Anemia, Grade 3: 1 (8.3) n (%)
  Anemia, Grade 4: 0 n (%)
  Blood alkaline phosphatase increased, All grades: 1 (8.3) n (%)
  Blood alkaline phosphatase increased, Grade 3: 0 n (%)
  Blood alkaline phosphatase increased, Grade 4: 0 n (%)
  Fatigue, All grades: 2 (16.7) n (%)
  Fatigue, Grade 3: 0 n (%)
  Fatigue, Grade 4: 0 n (%)
  Hyperglycemia, All grades: 2 (16.7) n (%)
  Hyperglycemia, Grade 3: 0 n (%)
  Hyperglycemia, Grade 4: 0 n (%)
  Hypokalemia, All grades: 3 (25.0) n (%)
  Hypokalemia, Grade 3: 1 (8.3) n (%)
  Hypokalemia, Grade 4: 0 n (%)
  Thrombocytopenia, All grades: 2 (16.7) n (%)
  Thrombocytopenia, Grade 3: 1 (8.3) n (%)
  Thrombocytopenia, Grade 4: 0 n (%)
  Upper respiratory tract infection, All grades: 1 (8.3) n (%)
  Upper respiratory tract infection, Grade 3: 1 (8.3) n (%)
[2]; 10 mg/day cohort
  Fatigue suspected to be related to everolimus, patients: 33.3%
  Hyperglycemia (increased blood glucose) suspected to be related to everolimus, patients: 41.7%
  Patients with grade 3 adverse events suspected to be related to everolimus: 25%
  Deaths during the study: 2
[2]; 10 mg/day, n = 12
  Adverse events with suspected relationship to everolimus: Total, All grades: 12 (100) n (%)
  Adverse events with suspected relationship to everolimus: Total, Grade 3: 3 (25.0) n (%)
  Adverse events with suspected relationship to everolimus: Total, Grade 4: 0 n (%)
[2]; [5]
  Anemia, All grades: 3 (25.0) n (%)
  Anemia, Grade 3: 0 n (%)
  Anemia, Grade 4: 0 n (%)
  Blood alkaline phosphatase increased, All grades: 3 (25.0) n (%)
  Blood alkaline phosphatase increased, Grade 3: 1 (8.3) n (%)
  Blood alkaline phosphatase increased, Grade 4: 0 n (%)
  Fatigue, All grades: 4 (33.3) n (%)
  Fatigue, Grade 3: 1 (8.3) n (%)
  Fatigue, Grade 4: 0 n (%)
  Hyperglycemia, All grades: 5 (41.7) n (%)
  Hyperglycemia, Grade 3: 1 (8.3) n (%)
  Hyperglycemia, Grade 4: 0 n (%)
  Hypokalemia, All grades: 2 (16.7) n (%)
  Hypokalemia, Grade 3: 0 n (%)
  Hypokalemia, Grade 4: 0 n (%)
  Thrombocytopenia, All grades: 3 (25.0) n (%)
  Thrombocytopenia, Grade 3: 0 n (%)
  Thrombocytopenia, Grade 4: 0 n (%)
  Upper respiratory tract infection, All grades: 0 n (%)
  Upper respiratory tract infection, Grade 3: 0 n (%)
  Upper respiratory tract infection, Grade 4: 0 n (%)
[2]; 5 and 10 mg/day cohorts
  Noninfectious pneumonitis: not observed
[2]; 5 or 10 mg/day, Chinese patients with advanced solid tumors
  Tolerability: well tolerated
[2]; both cohorts, 24 patients in total
  Patients reporting ≥1 adverse event: 24 patients
[2]; whole study, reversible with remedial treatment and interruption of everolimus
  Grade 3 upper respiratory tract infection, patients: 1 patient
Advanced solid tumors; 5 mg/day cohort
  Progressive disease as best overall response, patients: 16.7%
  Best overall tumor response stable disease, patients: 83% and 83.3%
Advanced solid tumors; 5 mg/day cohort, 95% CI 2.89-8.05
  Median duration of stable disease: 5.03 months
Advanced solid tumors; 10 mg/day cohort
  Progressive disease as best overall response, patients: 41.7%
  Best overall tumor response stable disease, patients: 50%
Advanced solid tumors; 10 mg/day cohort, 95% CI 3.58-not reached
  Median duration of stable disease: 6.08 months
Advanced solid tumors; 4 patients with RCC, at data cutoff, 95% CI 6.08-11.1+
  Median duration of stable disease: not yet been reached
Advanced solid tumors; 5 and 10 mg/day cohorts, RECIST
  Complete or partial responses: No complete or partial responses
Advanced solid tumors; NSCLC
  Patients with stable disease: 4 patients
Advanced solid tumors; RCC
  Patients with stable disease: 4 patients
Advanced solid tumors; breast cancer
  Patients with stable disease: 3 patients
Advanced solid tumors; gastric cancer
  Patients with stable disease: 5 patients
[3]; 5 mg/day
  Discontinued: Death: 0 n (%)
  Discontinued: Disease progression: 9 (75.0) n (%)
[3]; 10 mg/day
  Discontinued: Death: 2 (16.7) n (%)
  Discontinued: Disease progression: 7 (58.3) n (%)
